Publication PMC12213745, “Compounds from Cyclocarya paliurus leaves inhibit binary division of methicillin-resistant Staphylococcus aureus by disrupting FtsZ dynamic” (Frontiers in Microbiology, 2025)

Experiments:
[1] = test system: S. enterica subsp. Enterica (1.1114); assay: MIC, broth microdilution (CLSI); type: cell-based, Salmonella enterica subsp. enterica; conditions: Salmonella enterica; S. enterica subsp. Enterica (1.1114); ≥ 90% growth inhibition, 18–24 h; read-out: MIC
Text: Staphylococcus aureus ATCC25923 and Escherichia coli ATCC25922 were obtained from the American Type Culture Collection (ATCC, Manassas, VA, USA). The Methicillin-resistant S. aureus (MRSA) clinical isolate MRSA-4, previously confirmed as mecA-positive and characterized for its antibiotic resistance profile ([Sun et al., 2023]), was used in this study. Staphylococcus epidermidis (GDMCC 1.143), Enterococcus faecalis (GDMCC 1.164), and Salmonella enterica subsp. enterica (GDMCC 1.1114) were obtained from the Guangdong Microbial Culture Collection Center (GDMCC, Guangzhou, China). The Pseudomonas aeruginosa PA14 strain was kindly provided by Professor Min Wu (Southwest Medical University, China). All bacterial strains were routinely cultured in Mueller-Hinton broth (MHB) or Luria-Bertani (LB) broth medium at 37°C with shaking at 200 rpm. Vancomycin was purchased from Solarbio Science & Technology Co., Ltd. (Beijing, China), and oxacillin was obtained from Taiji Group Hengsheng Pharmaceutical Co., Ltd. (Chengdu, China). The polyclonal rabbit primary anti-body to FtsZ was purchased from Abcam PLC (Cambridge, UK). Alexa488-conjugated goat anti-rabbit IgG was purchased from ZSGB-BIO Biotechnology (Beijing, China). DAPI staining solution was purchased from Beyotime Biotechnology (Shanghai, China).
The minimum inhibitory concentrations (MICs) of the test compounds (AA, MA, and UA) were determined using the standard broth microdilution method in accordance with the Clinical and Laboratory Standards Institute (CLSI) guidelines ([Humphries et al., 2021]). Bacteria were cultured in MHB or LB broth at 37°C with shaking (200 rpm) to the logarithmic phase, then diluted to a final density of 1 × 10^6 CFU/mL. Test compounds (dissolved in DMSO) and positive controls (vancomycin and oxacillin) were diluted in MHB and serially twofold diluted in 96-well plates. Each well was inoculated with 100 μL of bacterial suspension (1 × 10^6 CFU/mL), yielding a final bacterial density of 5 × 10^5 CFU/mL and a total volume of 200 μL. The final concentrations tested were 128 to 1 μg/mL for AA, MA, and UA; 16 to 0.5 μg/mL for vancomycin; and 64 to 0.0625 μg/mL for oxacillin. DMSO was used as a solvent control. Plates were incubated statically at 37°C for 18–24 h. After incubation, the OD600 was measured using a microplate reader (SpectraMax i3x, Molecular Devices, CA, USA). The MIC was defined as the lowest compound concentration that caused ≥ 90% inhibition of bacterial growth compared to the drug-free growth control. All tests were performed in three independent biological replicates.
Following the isolation and identification of AA, MA, and UA from ECPL, we evaluated their antibacterial activity and spectrum. The MICs of the compounds were determined against MRSA-4, S. aureus ATCC25923, S. epidermidis, and E. faecalis (Gram-positive), as well as P. aeruginosa PA14, E. coli ATCC25922, and S. enterica subsp. Enterica (Gram-negative) using the standard broth microdilution method in accordance with CLSI guidelines ([Humphries et al., 2021]).

[2] = test system: MRSA-4; assay: Time-dependent killing assay; type: cell-based, Methicillin-resistant S. aureus; conditions: for time-kill outcome at 1 × and 2 × MIC: 1 × or 2 × MIC, initial reduction within 2 h, regrowth by 24 h; for nature of antibacterial effect (time-kill assays): MRSA-4
Method: An overnight culture of MRSA-4 was diluted 1:100 in fresh MHB and incubated at 37°C with shaking (200 rpm) until reaching mid-log phase (OD600 = 0.4–0.6). The culture was then adjusted to 1 × 10^6 CFU/mL and treated with AA, MA, or UA at concentrations of 1×, 2×, and 4 × MIC. 2 × MIC of vancomycin was used as a positive control, and an equivalent volume of DMSO served as the negative control. The cultures were incubated at 37°C with shaking (200 rpm) during the assay. At designated time points (0, 1, 2, 4, 8, and 24 h), samples were collected, serially diluted tenfold in sterile PBS, and 100 μL of appropriate dilutions were plated on LB agar. Plates were incubated at 37°C for 18–24 h, and viable bacteria were quantified. All experiments were performed in biological triplicates.
We next performed time-kill kinetics assays to characterize the time-dependent antibacterial effects of AA, MA, and UA against MRSA-4. Bacterial cultures were exposed to AA, MA, and UA at 1×, 2×, and 4 × their respective MICs, and viable CFU were counted at designated time points (0, 1, 2, 4, 8, and 24 h). As shown in the time-kill curves (Figure 1), treatment with 1 × or 2 × MIC of AA, MA, or UA led to an initial reduction in bacterial load within the first 2 h.

[3] = test system: MRSA-4; assay: SEM analysis, cell long axis; type: cell-based, Methicillin-resistant S. aureus; conditions: 2 × MIC, 2 h, mean ± SD, PBS control 0.53 ± 0.04
Method: Scanning electron microscopy (SEM) was used to observe the morphological changes in bacterial cells treated with the isolated compounds. S. aureus ATCC 25923 and MRSA-4 were grown in MHB to mid-log phase (OD600 = 0.4–0.6) as previously described. The bacteria cultures were treated with AA, MA, or UA at 2 × MIC for 2 h at 37°C with shaking at 150 rpm. Untreated cultures (PBS group) served as the growth control. After incubation, bacterial cells were harvested by centrifugation and washed three times with PBS (pH 7.2). Coverslips (8 mm diameter) were cleaned with absolute ethanol under ultrasonication, air-dried, immersed in 0.1% (w/v) chitosan solution (dissolved in 1% acetic acid) for 5 s, and air-dried again at room temperature ([Su et al., 2022]). A 25 μL aliquot of the washed bacterial suspension was added to each coverslip and allowed to adhere for 1 h at room temperature. Adhered cells were fixed with 1 mL of 2.5% (v/v) glutaraldehyde at 4°C overnight. Fixed samples were rinsed 2–3 times with PBS (5 min per rinse), then dehydrated through a graded ethanol series: 50, 70, and 90% ethanol (each once for 5 min), followed by 100% ethanol (three times for 5 min each). After dehydration, samples were air-dried overnight at room temperature. SEM imaging was performed using an EVO 10 scanning electron microscope (Zeiss, Jena, Germany). Cell long-axis statistical analysis was conducted using ImageJ software (Version 1.42q, National Institutes of Health, MD, USA).
Having established the antibacterial activity of AA, MA, and UA, we next examined their effects on bacterial morphology. We employed SEM to examine the alterations induced by these compounds in S. aureus ATCC25923 and MRSA-4. Bacterial cultures were treated with AA, MA, or UA at 2 × MIC for 2 h, while untreated (PBS group) cultures served as negative controls. […] In PBS groups, both S. aureus ATCC25923 and MRSA-4 maintained typical spherical morphology with smooth and intact surfaces.

Compound | MIC [1] | time-kill outcome at 1 × and 2 × MIC [2] | bacterial counts (below the detection limit) ([2]; 4 × MIC) | reduction of viable bacterial counts ([2]; 4 × MIC, within 2 h) | nature of antibacterial effect (time-kill assays) [2] | length of long axis of cells [3] | reduction of viable bacterial counts ([2]; 4 × MIC, at/over 24 h)
C[C@H]1[C@H](C)CC[C@]2(C(=O)O)CC[C@]3(C)C(=CC[C@@H]4[C@@]5(C)C[C@@H](O)[C@H](O)[C@@](C)(CO)[C@@H]5CC[C@]43C)[C@H]12 [AA, asiatic acid] | > 128 µg/mL | primarily bacteriostatic activity | < 2 log10 CFU/mL | > 3 log10 CFU/mL | bactericides | 0.75 ± 0.07 μm | 
CC1(C)CC[C@]2(C(=O)O)CC[C@]3(C)C(=CC[C@@H]4[C@@]5(C)C[C@@H](O)[C@H](O)C(C)(C)[C@@H]5CC[C@]43C)[C@@H]2C1 [MA, maslinic acid] | > 128 µg/mL | primarily bacteriostatic activity |  |  | bactericides | 0.76 ± 0.10 μm | > 3 log10 CFU/mL
C[C@H]1[C@H](C)CC[C@]2(C(=O)O)CC[C@]3(C)C(=CC[C@@H]4[C@@]5(C)CC[C@H](O)C(C)(C)[C@@H]5CC[C@]43C)[C@H]12 [UA, ursolic acid] | > 128 µg/mL | primarily bacteriostatic activity |  |  | bacteriostatic | 0.69 ± 0.06 μm | ≤ 3 log10 CFU/mL
